Data reported in patent publication US20250163062A1, “WNT PATHWAY INHIBITOR COMPOUNDS” (ADLAI NORTYE BIOPHARMA CO., LTD., priority 2022, published 2025).

Legend:
Assay type in all cases: cell-based
DU4475 = test: Proliferation inhibition test, Wnt mutant cell line DU4475; conditions: Homo sapiens, DU-4475, 96 h, DU4475, 96 h culture with compound; read-out: Antiproliferation IC50 DU4475
Text: (§1) The cell lines used in the experiment are Colo205, H929, HepG2, and DU4475, which have sustained activation of the Wnt pathway and whose proliferation is Wnt pathway-dependent. On the other hand, RKO cell line, in which normally the Wnt pathway is not activated and whose proliferation is not Wnt pathway-dependent, was used as a control cell line. This was done to determine whether the inhibitory effect of the compound of the present disclosure on Wnt-dependent proliferation is due to other nonspecific toxicity.
(§2) Colo205, H929, DU4475, HepG2 and RKO cell lines cultured in their respective culture media were treated in the logarithmic growth phase, and the cells were collected and prepared into a uniform cell suspension of known concentration, and then added to a 96-well cell culture plate so that each well contained 1000-4000 cells. Place in a 5% CO2 cell culture incubator and culture at 37° C. for 20-24 h. On the second day, add the completely dissolved, 3-fold gradient dilution compound to each cell culture well to make the final maximum concentration in the cell culture well 10 uM, and continue to culture for 96 h. This test uses Promega's cell activity detection test for detection. The more the cells proliferate, the stronger the final signal intensity. The detection instrument is SpectraMax, full wavelength mode. The wells with only DMSO added were used as positive control wells, and the wells without cells inoculated were used as negative control wells.

HepG2 = test: Proliferation inhibition test, Wnt mutant cell line HepG2; conditions: Homo sapiens, HepG2, 96 h, HepG2, 96 h culture with compound; read-out: Antiproliferation IC50 HepG2
Text: as §1, §2

H929 = test: Proliferation inhibition test, Wnt mutant cell line H929; conditions: Homo sapiens, NCI-H929, 96 h, H929, 96 h culture with compound; read-out: Antiproliferation IC50 H929
Text: as §1, §2

RKO = test: Proliferation inhibition test, non-Wnt mutant control cell line RKO; conditions: Homo sapiens; RKO (Wnt pathway not activated, control), 96 h culture, maximum concentration 10 uM; read-out: Antiproliferation IC50 RKO
Text: as §1, §2

Colo205 = test: Proliferation inhibition test, Wnt mutant cell line Colo205; conditions: Homo sapiens, COLO 205, 96 h, Colo205, 96 h culture with compound; read-out: Antiproliferation IC50 Colo205
Text: as §1, §2

[1] = tested on: Colo205-LUC-TCF/LEF reporter gene; test: Colo205-LUC-TCF/LEF M1 reporter cell line luciferase inhibition; conditions: 4 h, 4 hours incubation, firefly luciferase signal
Method: Colo205 cell line (Cell Bank of Chinese Academy of Sciences, Cat #TCHul02) was purchased from the Cell Bank of Chinese Academy of Sciences. After expansion and subculture, during the exponential growth phase, luciferase reporter plasmid (Promega) driven by TCF/LEF transcription factor was transfected by lipo3000 liposome transfection. The plasmid carries a resistance gene for resistance screening. Transfection was carried out in 10 cm culture dishes using conventional complete medium without resistance. After 2 days, the medium with resistance was replaced, and the culture was continued. After that, the medium with resistance was replaced every 2 days, and the suspended cells were discarded. The original medium was centrifuged to remove cells and debris and retained as an adaptive medium. When the cells covered the culture dish, the cells were digested, counted, and passaged in a 96-well plate, so that the average number of cells contained in each well was 1.5/well, and the adaptive medium was used for passage. The rest of the cells were frozen. After passage, culture for 4 hours to allow the cells to adhere to the wall, and then observe the number of cells in each well under a microscope. Wells with only 1 cell per well were labeled as monoclonal wells. Afterwards, normal culture was performed, and the culture medium was replaced every 2 days, and observed. There are wells where the monoclonal cells continue to grow in the early stage, and they are labeled twice, and can be replaced with normal medium with resistance. When a monoclonal well was overgrown with a 96-well plate, it is digested and passaged to a 24-well culture plate. After the 24-well plate is overgrown, it is passaged to a 96-well plate and a 6-well plate. The cells in a 96-well plate are at least 6 wells, of which 3 wells were added with known Wnt inhibitors, and the other 3 wells were not treated. After 24 hours, the cells in the 96-well plate were added with a fluorescence detection reagent to detect the fluorescence intensity. Cell lines with fluorescent expression when not treated and decreased fluorescent light after inhibition were selected and further cultured. The Colo205-LUC-TCF/LEF-M1 cell line is one of the cell lines screened above. Its growth curve, cell shape, and cell growth state are similar to those of the original Colo205 cells, and the ratio of the fluorescent signals of the inhibitor-treated and untreated cells is the largest among all cell lines, and the ratio can reach 4-5 times when inhibited at 4 hours, which was completely suitable for the screening of Wnt inhibitors in the later stage.
The Colo205-LUC-TCF/LEF M1 cell line is a reporter tool cell stably transfected with the pGL4.49-LUC2-TCF/LEF vector. The β-catenin Wnt pathway is continuously activated. After adding the inhibitor, the Wnt pathway is inhibited. The expression of firefly luciferase regulated by the TCF/LEF cis-element decreased, and after adding the detection substrate, the detected light signal decreased accordingly, so as to detect the inhibitory effect of the compound.
To a 96-well cell culture plate, add 100 uL of the compound with a maximum concentration of 20 uM to each well, and make a 3-fold serial dilution of the compound concentration. Then 10,000 colo205 cells stably transfected with the reporter gene and 100 uL medium were inoculated into each well, and corresponding positive and negative control wells were made at the same time. Put the cells in a 5% CO2 incubator and incubate at 37° C. for 4 hours. After 4 hours, remove the culture medium, add 100 μL of reagent (Promega) containing the corresponding firefly luciferase substrate to each well, and measure the activity of luciferase reporter gene. Luminescence intensity was read with SpectraMax in full wavelength mode. […]

| Compound | IC50 (DU4475) | IC50 (HepG2) | IC50 (H929) | IC50 (RKO) | IC50 (Colo205) | IC50 [1] |
| --- | --- | --- | --- | --- | --- | --- |
| CNc1nc(C(F)(F)F)ccc1Oc1ccc(CNc2nc3c4c(n2)N(C)[C@@](C)(CO)C(=O)N4CCC3)cn1 [Compound 16, (S)-5-(Hydroxymethyl)-4,5-dimethyl-2-(((6-((2-(methylamino)-6-(trifluoromethyl)pyridin-3-yl)oxy)pyridin-3-yl)methyl)amino)-4,5,9,10-tetrahydro-6H,8H-pyrido[3,2,1-de]pteridin-6-one] | 1.2 nM | 1.13 nM | 103 nM | > 10000 nM | < 0.1 nM | 21.5 nM |
| CCc1nc(C(F)(F)F)ncc1Oc1ccc(CNc2nc3c4c(n2)N(C)[C@@](C)([C@H](C)O)C(=O)N4CCC3)cn1 [Compound 14, (S)-2-(((6-((4-ethyl-2-(trifluoromethyl)pyrimidin-5-yl)oxy)pyridin-3-yl)methyl)amino)-5-((S)-1-hydroxyethyl)-4,5-dimethyl-4,5,9,10-tetrahydro-6H,8H-pyrido[3,2,1-de]pteridin-6-one] |  | 79 nM |  | > 10000 nM | 70.3 nM | 35.2 nM |
| Cc1nc(C(F)(F)F)ncc1Oc1ccc(CNc2nc3c4c(n2)N(C)[C@@](C)(CO)C(=O)N4CCC3)cn1 [Compound 19] | 14.8 nM | 31.1 nM | 58.3 nM | > 10000 nM | 26.6 nM | 34.8 nM |
| CN1c2nc(NCc3ccc(Oc4ccc(C(F)(F)F)nc4Cl)nc3)nc3c2N(CCC3)C(=O)[C@@H]1CO [Compound 2, (S)-2-(((6-((2-chloro-6-(trifluoromethyl)pyridin-3-yl)oxy)pyridin-3-yl)methyl)amino)-5-(hydroxymethyl)-4-methyl-4,5,9,10-tetrahydro-6H,8H-pyrido[3,2,1-de]pteridin-6-one] | 5.05 nM | 1.68 nM | 47.7 nM | > 10000 nM | 8.67 nM | 22.5 nM |
| [2H]C([2H])([2H])N1c2nc(NCc3ccc(Oc4ccc(C(F)(F)F)nc4F)nc3)nc3c2N(CCC3)C(=O)[C@]1(C)CO [Compound 18, (S)-2-(((6-((2-fluoro-6-(trifluoromethyl)pyridin-3-yl)oxy)pyridin-3-yl)methyl)amino)-5-(hydroxymethyl)-5-methyl-4-(methyl-d3)-4,5,9,10-tetrahydro-6H,8H-pyrido[3,2,1-de]pteridin-6-one] | 6.72 nM | 22.1 nM | 78.8 nM | > 10000 nM | 7.43 nM | 29.9 nM |
| Cc1nc(C(F)(F)F)ncc1Oc1ccc(CNc2nc3c4c(n2)N(C)[C@@H]([C@@H](C)O)C(=O)N4CCC3)cn1 [Compound 23] | 16 nM | 37.5 nM | 192 nM | > 10000 nM | 53.7 nM | 64.7 nM |
| CN(c1nc(C(F)(F)F)ccc1Oc1ccc(CNc2nc3c4c(n2)N(C)[C@@](C)(CO)C(=O)N4CCC3)cn1)C1CC1 [Compound 20] | < 0.1 nM | 3.22 nM | 52 nM | > 10000 nM | < 0.1 nM | 1.46 nM |
| [2H]C([2H])([2H])N1c2nc(NCc3ccc(Oc4cnc(C(F)(F)F)nc4C)nc3)nc3c2N(CCC3)C(=O)[C@]1(C)CO [Compound 5, (S)-5-(Hydroxymethyl)-5-methyl-4-(methyl-d3)-2-(((6-((4-methyl-2-(trifluoromethyl)pyrimidin-5-yl)oxy)pyridin-3-yl)methyl)amino)-4,5,9,10-tetrahydro-6H,8H-pyrido[3,2,1-de]pteridin-6-one] | 14.4 nM | 33.5 nM | 160 nM | > 10000 nM | 20.6 nM | 50.9 nM |
| CN1c2nc(NCc3ccc(Oc4ccc(C(F)(F)F)nc4CC#N)nc3)nc3c2N(CCC3)C(=O)[C@@H]1CO [Compound 17, (S)-2-(3-((5-(((5-(Hydroxymethyl)-4-methyl-6-carbonyl-5,6,9,10-tetrahydro-4H,8H-pyrido[3,2,1-de]pteridin-2-yl)amino)methyl)pyridin-2-yl)oxy)-6-(trifluoromethyl)pyridin-2-yl)acetonitrile] | 42.9 nM | 879 nM | 599 nM | > 10000 nM | 179 nM | 264 nM |
| [2H]C([2H])([2H])N1c2nc(NCc3ccc(Oc4cnc(C(F)(F)F)nc4C4CC4)nc3)nc3c2N(CCC3)C(=O)[C@]1(C)CO [Compound 10, (S)-2-(((6-((4-cyclopropyl-2-(trifluoromethyl)pyrimidin-5-yl)oxy)pyridin-3-yl)methyl)amino)-5-(hydroxymethyl)-5-methyl-4-(methyl-d3)-4,5,9,10-tetrahydro-6H,8H-pyrido[3,2,1-de]pteridin-6-one] | < 0.5 nM | 3.54 nM | 18 nM | > 10000 nM | 2.34 nM | 3.89 nM |
| [2H]C([2H])([2H])N1c2nc(NCc3ccc(Oc4cnc(C(F)(F)F)nc4CC)nc3)nc3c2N(CCC3)C(=O)[C@]1(C)CO [Compound 7, (S)-2-(((6-((4-ethyl-2-(trifluoromethyl)pyrimidin-5-yl)oxy)pyridin-3-yl)methyl)amino)-5-(hydroxymethyl)-5-methyl-4-(methyl-d3)-4,5,9,10-tetrahydro-6H,8H-pyrido[3,2,1-de]pteridin-6-one] | 3.59 nM | 15.6 nM | 52.2 nM | > 10000 nM | 5.54 nM | 10.7 nM |
| [2H]C([2H])([2H])N1c2nc(NCc3ccc(Oc4cnc(C(F)(F)F)nc4CC)nc3)nc3c2N(CCC3)C(=O)[C@@H]1CO [Compound 8, (S)-2-(((6-((4-ethyl-2-(trifluoromethyl)pyrimidin-5-yl)oxy)pyridin-3-yl)methyl)amino)-5-(hydroxymethyl)-4-(methyl-d3)-4,5,9,10-tetrahydro-6H,8H-pyrido[3,2,1-de]pteridin-6-one] | 9.6 nM | 35.1 nM | 86.9 nM | > 10000 nM | 24.2 nM | 32 nM |
| CN(C)c1nc(C(F)(F)F)ccc1Oc1ccc(CNc2nc3c4c(n2)N(C)[C@@](C)(CO)C(=O)N4CCC3)cn1 [Compound 15, (S)-2-(((6-((2-(dimethylamino)-6-(trifluoromethyl)pyridin-3-yl)oxy)pyridin-3-yl)methyl)amino)-5-(hydroxymethyl)-4,5-dimethyl-4,5,9,10-tetrahydro-6H,8H-pyrido[3,2,1-de]pteridin-6-one] |  | 1.3 nM |  | > 10000 nM | 1.35 nM | < 0.1 nM |
